We go through nine compounds from the NIST ThermoML archive (doi:10.1021/je500450w).

SMILES strings stand for the structures. Numbers after ± are expanded uncertainties.

For the series the following is noted: 101 kPa, Liquid mixture 1.

Turning to `CCCCCCCCC` [nonane] + O, the interfacial tension runs as follows: (293.2 K, Drop weight) 51.95 ± 0.46 mN/m; (298.2 K, Drop weight) 51.54 ± 0.46 mN/m; (303.2 K, Drop weight) 51.11 ± 0.46 mN/m; (308.2 K, Drop weight) 50.68 ± 0.46 mN/m; (313.2 K, Drop weight) 50.23 ± 0.45 mN/m; (318.2 K, Drop weight) 49.63 ± 0.45 mN/m. The interfacial tension runs as follows: (323.2 K, Drop weight) 49.09 ± 0.44 mN/m; (328.2 K, Drop weight) 48.46 ± 0.44 mN/m; (333.2 K, Drop weight) 48.03 ± 0.43 mN/m; (338.2 K, Drop weight) 47.61 ± 0.43 mN/m; (343.2 K, Drop weight) 46.96 ± 0.43 mN/m.

For `CCCCCC` [hexane] + O, the interfacial tension was determined as 50.81 ± 0.46 mN/m (293.2 K, Drop weight); 50.49 ± 0.45 mN/m (298.2 K, Drop weight); 50.11 ± 0.45 mN/m (303.2 K, Drop weight); 49.68 ± 0.45 mN/m (308.2 K, Drop weight); 49.28 ± 0.44 mN/m (313.2 K, Drop weight); 48.84 ± 0.44 mN/m (318.2 K, Drop weight). Moreover, the interfacial tension (323.2 K, Drop weight) was 48.46 ± 0.44 mN/m; the interfacial tension (328.2 K, Drop weight) came out at 47.94 ± 0.43 mN/m; the interfacial tension (333.2 K, Drop weight) turned out to be 46.92 ± 0.43 mN/m.

Turning to `CCCCCCC` [heptane] + O, the interfacial tension runs as follows: (293.2 K, Drop weight) 51.3 ± 0.46 mN/m; (298.2 K, Drop weight) 50.87 ± 0.46 mN/m; (303.2 K, Drop weight) 50.35 ± 0.45 mN/m; (308.2 K, Drop weight) 49.84 ± 0.45 mN/m; (313.2 K, Drop weight) 49.6 ± 0.45 mN/m; (318.2 K, Drop weight) 49 ± 0.44 mN/m. Besides, the interfacial tension by setting is: (323.2 K, Drop weight) 48.54 ± 0.44 mN/m; (328.2 K, Drop weight) 48.1 ± 0.44 mN/m; (333.2 K, Drop weight) 47.73 ± 0.43 mN/m; (338.2 K, Drop weight) 47.28 ± 0.43 mN/m; (343.2 K, Drop weight) 46.7 ± 0.42 mN/m.

As to `CCCCCCCCCO` [nonan-1-ol] + O, the interfacial tension (293.2 K) was found to be 8.18 ± 0.25 mN/m; the interfacial tension (298.2 K) came to 8.48 ± 0.26 mN/m; the interfacial tension (303.2 K) is on record as 9 ± 0.26 mN/m; the interfacial tension (313.2 K) amounted to 9.15 ± 0.27 mN/m; the interfacial tension (323.2 K) was found to be 9.86 ± 0.28 mN/m; the interfacial tension (333.2 K) worked out at 9.67 ± 0.27 mN/m. For the same compound, the interfacial tension (343.2 K) is 9.72 ± 0.27 mN/m.

`c1ccccc1` [benzene] + O: the interfacial tension (293.2 K, Drop weight) is reported as 34.82 ± 0.33 mN/m; the interfacial tension (298.2 K, Drop weight) turned out to be 34.06 ± 0.33 mN/m; the interfacial tension (303.2 K, Drop weight) was determined as 33.64 ± 0.32 mN/m; the interfacial tension (308.2 K, Drop weight) is 32.87 ± 0.32 mN/m; the interfacial tension (313.2 K, Drop weight) turned out to be 32.1 ± 0.31 mN/m; the interfacial tension (318.2 K, Drop weight) is 31.62 ± 0.31 mN/m. Further, the interfacial tension worked out at 30.95 ± 0.3 mN/m (323.2 K, Drop weight); 30.92 ± 0.3 mN/m (328.2 K, Drop weight); 30.52 ± 0.3 mN/m (333.2 K, Drop weight).

`CCCCCCCO` [heptan-1-ol] + O: the interfacial tension (293.2 K, Drop weight) is given as 6.37 ± 0.12 mN/m; the interfacial tension (298.2 K, Drop weight) is reported as 6.44 ± 0.12 mN/m; the interfacial tension (303.2 K, Drop weight) stood at 6.52 ± 0.12 mN/m; the interfacial tension (313.2 K, Drop weight) is on record as 6.6 ± 0.12 mN/m; the interfacial tension (323.2 K, Drop weight) came to 6.62 ± 0.12 mN/m; the interfacial tension (333.2 K, Drop weight) came out at 6.58 ± 0.12 mN/m. In addition, under “343.2 K, Drop weight”, the interfacial tension came out at 6.46 ± 0.12 mN/m.

With `CCCCCCCCO` [octan-1-ol] + O, the interfacial tension is listed as 8.02 ± 0.13 mN/m (293.2 K, Drop weight); 8.19 ± 0.13 mN/m (298.2 K, Drop weight); 8.42 ± 0.13 mN/m (303.2 K, Drop weight); 8.62 ± 0.13 mN/m (313.2 K, Drop weight); 8.83 ± 0.13 mN/m (323.2 K, Drop weight); 9.02 ± 0.13 mN/m (333.2 K, Drop weight). The interfacial tension (343.2 K, Drop weight) was 9.02 ± 0.13 mN/m.

`CCCCCCO` [hexan-1-ol] + O: the interfacial tension amounted to 7.37 ± 0.12 mN/m (293.2 K, Drop weight); 7.49 ± 0.13 mN/m (298.2 K, Drop weight); 7.6 ± 0.13 mN/m (303.2 K, Drop weight); 7.7 ± 0.13 mN/m (313.2 K, Drop weight); 7.86 ± 0.13 mN/m (323.2 K, Drop weight); 7.9 ± 0.13 mN/m (333.2 K, Drop weight). Besides, the interfacial tension (343.2 K, Drop weight) came to 7.87 ± 0.13 mN/m.

`CCCCCCCC` [octane] + O: the interfacial tension reads like this: (293.2 K, Drop weight) 51.67 ± 0.46 mN/m; (298.2 K, Drop weight) 51.2 ± 0.46 mN/m; (303.2 K, Drop weight) 50.78 ± 0.46 mN/m; (308.2 K, Drop weight) 50.28 ± 0.45 mN/m; (313.2 K, Drop weight) 49.9 ± 0.45 mN/m; (318.2 K, Drop weight) 49.31 ± 0.44 mN/m. Besides, the interfacial tension is, setting by setting: (323.2 K, Drop weight) 48.86 ± 0.44 mN/m; (328.2 K, Drop weight) 48.34 ± 0.44 mN/m; (333.2 K, Drop weight) 47.81 ± 0.43 mN/m; (338.2 K, Drop weight) 47.33 ± 0.43 mN/m; (343.2 K, Drop weight) 46.82 ± 0.43 mN/m.
